In US6369059B1, “Tetracyclic derivatives, process of preparation and use” (ICOS Corporation, priority 1994, dated 2002):

SMILES | melting point
CN1CC(=O)N2[C@@H](c3ccc(OC(F)(F)F)cc3)c3[nH]c4ccccc4c3C[C@@H]2C1=O (relative stereo) [Example 67, Cis-2,3,6,7,12,12a-Hexahydro-2-methyl-6-(4-trifluoromethoxyphenyl)-pyrazino[2′,1′:6,1]pyrido[3,4-b]indole-1,4-dione] | 174 to 180 °C
CN1CC(=O)N2[C@@H](c3ccc(O)cc3)c3[nH]c4ccccc4c3C[C@@H]2C1=O (relative stereo) [Example 68, Cis-2,3,6,7,12,12a-Hexahydro-2-methyl-6-(4-hydroxyphenyl)-pyrazino[2′,1′:6,1]pyrido[3,4-b]indole-1,4-dione] | 179 to 180 °C
COc1cc([C@H]2c3[nH]c4ccccc4c3C[C@@H]3C(=O)N(C)CC(=O)N23)ccc1O (relative stereo) [Example 70, Cis-2,3,6,7,12,12a-Hexahydro-6-(4-hydroxy-3-methoxyphenyl)-2-methyl-pyrazino[2′,1′:6,1]pyrido[3,4-b]indole-1,4-dione] | 264 to 265 °C
CCCCN1CC(=O)N2[C@@H](c3ccc(C#N)cc3)c3[nH]c4ccccc4c3C[C@@H]2C1=O (relative stereo) [Example 71, Cis-2,3,6,7,12,12a-Hexahydro-2-butyl-6-(4cyanophenyl)-pyrazino[2′,1′:6,1]pyrido[3,4-b]indole-1,4-dione] | 246 °C
CCc1ccc([C@H]2c3[nH]c4ccccc4c3C[C@@H]3C(=O)N(C(C)C)CC(=O)N23)cc1 (relative stereo) [Example 72, Cis-2,3,6,7,12,12a-Hexahydro-6-(4-ethylphenyl)-2-isopropyl-pyrazino[2′,1′:6,1]pyrido[3,4-b]indole-1,4-dione] | 130 °C
CCc1ccc([C@H]2c3[nH]c4ccccc4c3C[C@@H]3C(=O)N(CC4CC4)CC(=O)N23)cc1 (relative stereo) [Example 73, Cis-2,3,6,7,12,12a-Hexahydro-6-(4-ethylphenyl)-2-cyclopropylmethyl-pyrazino[2′,1′:6,1]pyrido[3,4-b]indole-1,4-dione] | 160 °C
CCCCN1CC(=O)N2[C@@H](c3ccc([N+](=O)[O-])cc3)c3[nH]c4ccccc4c3C[C@@H]2C1=O (relative stereo) [Example 75, Cis-2,3,6,7,12,12a-Hexahydro-2-butyl-6-(4-nitrophenyl)-pyrazino[2′,1′:6,1]pyrido[3,4-b]indole-1,4-dione] | 182 °C
CN1CC(=O)N2[C@@H](c3cccnc3)c3[nH]c4ccccc4c3C[C@@H]2C1=O (relative stereo) [Example 77, Cis-2,3,6,7,12,12a-Hexahydro-2-methyl-6-(3-pyridyl)-pyrazino[2′,1′:6,1]pyrido[3,4-b]indole-1,4-dione] | 312 °C
Cc1ccc2[nH]c3c(c2c1)C[C@@H]1C(=O)N(C)CC(=O)N1[C@H]3c1ccc2c(c1)OCO2 (relative stereo) [Example 96, Cis-2,3,6,7,12,12a-Hexahydro-2,10-dimethyl-6-(3,4-methylenedioxyphenyl)-pyrazino[2′,1′:6,1]pyrido[3,4-b]indole-1,4-dione] | 275 °C
CCCCN1CC(=O)N2[C@@H](c3ccc(N)cc3)c3[nH]c4ccccc4c3C[C@@H]2C1=O (relative stereo) [Example 98, Cis-2,3,6,7,12,12a-Hexahydro-6-(4-aminophenyl)-2-butyl-pyrazino[2′,1′:6,1]pyrido[3,4-b]indole-1,4-dione] | 192 °C
CCCCN1CC(=O)N2[C@@H](c3ccc(NC(C)=O)cc3)c3[nH]c4ccccc4c3C[C@@H]2C1=O (relative stereo) [Example 99, Cis-2,3,6,7,12,12a-Hexahydro-6-(4-acetamidophenyl)-2-butyl-pyrazino[2′,1′:6,1]pyrido[3,4-b]indole-1,4-dione] | 246 °C
CCc1ccc([C@H]2c3[nH]c4ccccc4c3C[C@@H]3C(=O)N(C)CC(=O)N23)cc1 (relative stereo) [Example 112, Cis-2,3,6,7,12,12a-Hexahydro-6-(4-ethylphenyl)-2-methyl-pyrazino[2′,1′:6,1]pyrido[3,4-b]indole-1,4-dione] | 254 °C
CCCCN1CC(=O)N2[C@H](c3ccc4c(c3)OCO4)c3[nH]c4ccccc4c3C[C@@H]2C1=O [Example 80, (6R,12aR)-2,3,6,7,12,12a-Hexahydro-2-butyl-6(3,4-methylenedioxyphenyl)-pyrazino[2′,1′:6,1]pyrido[3,4-b]indole-1,4-dione] | 209 to 210 °C
CC(C)CN1CC(=O)N2[C@H](c3ccc4c(c3)OCO4)c3[nH]c4ccccc4c3C[C@@H]2C1=O [Example 81, (6R,12aR)-2,3,6,7,12,12a-Hexahydro-2-isobutyl-6-(3,4-methylenedioxyphenyl)-pyrazino[2′,1′:6,1]pyrido[3,4-b]indole-1,4-dione] | 227 to 228 °C
O=C1[C@H]2Cc3c([nH]c4ccccc34)[C@@H](c3ccc4c(c3)OCO4)N2C(=O)CN1CC1CCCCC1 [Example 83, (6R,12aR)-2,3,6,7,12,12a-Hexahydro-6-(3,4-methylenedioxyphenyl)-2-cyclohexylmethyl-pyrazino[2′,1′:6,1]pyrido[3,4-b]indole-1,4-dione] | 209 °C
COc1ccc([C@@H]2c3[nH]c4ccccc4c3C[C@@H]3C(=O)N(CC4CC4)CC(=O)N23)cc1Cl [Example 87, (6R,12aR)-2,3,6,7,12,12a-Hexahydro-6-(3-chloro-4-methoxyphenyl)-2-cyclopropylmethyl-pyrazino[2′,1′:6,1]pyrido[3,4-b]indole-1,4-dione] | 218 to 219 °C
COc1ccc([C@@H]2c3[nH]c4ccccc4c3C[C@@H]3C(=O)N(C4CCCC4)CC(=O)N23)cc1Cl [Example 88, (6R,12aR)-2,3,6,7,12,12a-Hexahydro-2-cyclopentyl6-(3-chloro-4-methoxyphenyl)-pyrazino[2′,1′:6,1]pyrido[3,4-b]indole-1,4-dione] | 260 to 262 °C
CN1CC(=O)N2[C@H](c3ccc4c(c3)CCC4)c3[nH]c4ccccc4c3C[C@@H]2C1=O [Example 93, (6R,12aR)-2,3,6,7,12,12a-Hexahydro-6-(5-indanyl)-2-methyl-pyrazino[2′,1′:6,1]pyrido[3,4-b]indole-1,4-dione] | 262 °C
COc1ccc(CN2CC(=O)N3[C@H](c4ccc5c(c4)OCO5)c4[nH]c5ccccc5c4C[C@@H]3C2=O)cc1OC [Example 97, (6R,12aR)-2,3,6,7,12,12a-Hexahydro-2-(3,4-dimethoxybenzyl)-6-(3,4-methylenedioxyphenyl)-pyrazino[2′,1′:6,1]pyrido[3,4-b]indole-1,4-dione] | 224 to 226 °C
C#CCN1CC(=O)N2[C@H](c3ccc4c(c3)OCO4)c3[nH]c4ccccc4c3C[C@@H]2C1=O [Example 102, (6R,12aR)-2,3,6,7,12,12a-Hexahydro-6-(3,4-methylenedioxyphenyl)-2-(2-propynyl)-pyrazino[2′,1′:6,1]pyrido[3,4-b]indole-1,4-dione] | 271 °C
COc1ccc([C@@H]2c3[nH]c4ccccc4c3C[C@@H]3C(=O)N(C)CC(=O)N23)cc1 [Example 107, (6R,12aR)-2,3,6,7,12,12a-Hexahydro-6-(4-methoxyphenyl)-2-methyl-pyrazino[2′,1′:6,1]pyrido[3,4-b]indole-1,4-dione] | 285 to 288 °C
